Source: paper PMC8623398, “Investigation of the Mechanisms of Cytotoxic Activity of 1,3-Disubstituted Thiourea Derivatives” (Pharmaceuticals, 2021)

Tests used:
Assay type in all cases: cell-based, human
[1] = tested on: SW480 cells; assay: MTT assay, SW480; settings: 50% growth inhibition
Experimental: As a first step in assessing their cytotoxic properties, all thioureas of the series were assayed against four human carcinoma cell lines, such as SW480 (primary colon cancer), SW620 (metastatic colon cancer), PC3 (metastatic prostate cancer), and K-562 (chronic myelogenous leukemia), as well as against the normal cell line HaCaT (immortalized human keratinocytes). Table 1 lists the compound concentrations that produced 50% of growth inhibition (IC50, μM), generated by the MTT method, in comparison with two commonly used chemotherapeutic agents, doxorubicin and cisplatin.
The human primary (SW480), metastatic (SW620) colon cancer, metastatic prostate cancer (PC3), chronic myelogenous leukemia (K-562), and human immortal keratinocyte (HaCaT) cell lines were purchased from the American Type Culture Collection (ATCC, Rockville, MD, USA). The cells were cultured in medium according to protocols (MEM for SW480 and SW620, RPMI 1640 for PC3 and K-562, and DMEM for HaCaT cells), supplemented with 10% FBS, penicillin (100 U/mL) and streptomycin (100 μg/mL), and cultured in a 37 °C/5% CO2 humidified incubator. The cells were cultured until appropriate confluence was achieved (80–90%). Next, they were harvested by treatment with 0.25% trypsin (Gibco Life Technologies, Waltham, MA, USA) excluding the non-adherent K-562 cell line and used for studies.
Cells without the studied compounds in medium were used as a control.
The cell viability was assessed by determination of MTT salt [3-(4,5-dimethylthiazol-2-yl)-2,5-diphenyltetrazoliumbromide] conversion by mitochondrial dehydrogenase. The MTT assay was performed as previously described. Alternatively, non-adherent leukemic cells were centrifuged in a microplate centrifuge (400× g, 5 min) during the collection stages. Experiments were repeated three times. Cell viability was presented as a percent of MTT reduction in the treated cells versus the control cells. The number of viable cells cultured without the studied compounds was assumed as 100%. A decreased relative MTT level indicated decreased cell viability. Thiourea compounds with the highest cytotoxic potential assessed by MTT determination (with the lowest IC50) were chosen for subsequent assessments of cytotoxicity mechanisms.

[2] = tested on: K-562 cells; assay: Trypan blue assay, K-562; settings: K-562, 72 h; for Cell Number × 10^5 / Viability (%): compound at IC50 concentration; for reduction in live cell number: IC50 concentration, vs control
Experimental: (§1) In order to estimate the tumor and normal cell population density and their viability after treatment with compounds 1–3, 8, and 9, the trypan blue dye exclusion assay was performed. The live cell number of all cancerous cells incubated for 72 h with the studied thioureas was considerably lower in comparison with the controls (Table 2; Figure S1A). The highest reduction in cell amount was denoted for both colon SW480 and SW620 cells treated with the dichlorophenyl derivative 2, and it accounted for 93%. […] Similarly, a noticeable decline in both colon cancer cell populations was observed after treatment with the ortho-substituted compound 8. The number of live cells equaled 12% and 18%, respectively, as compared to controls. This thiourea also led to a reduction of PC3 cells of 38%, and leukemia K-562 cell lines of 27%. The number of SW620 and PC3 cells decreased by 72% and 63% in the presence of para-substituted compound 9. However, the reducing influence of this thiourea on the number of other cancerous cells was at the level of 21–32%. […] A significant effect on the other studied pathological cells was also noticed and accounted for 32–46%. Furthermore, the derivative 3 reduced the amount of live cancer cells by 32–59%, of which its decreasing impact on colon cancer cells was the greatest.
(§2) The live cell count was assessed by the trypan blue exclusion dye assay using an automated cell counter (CountessTM Invitrogen, Waltham, MA, USA). Untreated cells were used as the control.

[3] = Trypan blue assay, HaCaT; settings: human, HaCaT cells, compound at IC50 concentration
Experimental: as §1, §2

[4] = tested on: HaCaT cells; assay: Trypan blue assay, HaCaT; settings: 72 h, compound at IC50 concentration
Experimental: as §1, §2

[5] = tested on: SW480 cells; assay: Annexin V-FITC/PI flow cytometry, SW480; settings: SW480, 72 h, IC50 concentration
Experimental: To estimate the mechanism of anticancer activity of the selected compounds 1–3, 8, and 9, their effect on both early and late apoptosis was evaluated by flow cytometry analysis. […] Additionally, visible late apoptosis-inducing properties in these cell lines were denoted for the compound 9 (47% ± 3.0%), which was twice as strong towards the colon tumor cells mentioned above. The apoptotic properties of analogs 3 and 8 in K-562 cells varied from 30% ± 1.6% to 33% ± 2.3%. […] Whereas the apoptosis-generating influence of derivatives 2 and 3 on normal keratinocytes was higher (29% and 23%), their selectivity measured by MTT methods is favorable. The obtained results are in agreement with the IC50 values assigned to pathological cancer cell lines. The cells were cultured and harvested under the conditions described in Section 3.2.1. […] The effect of these compounds on the process of early and late apoptosis and necrosis was determined as described previously by dual staining with Annexin V:FITC and propidium iodide, according to the manufacturer’s protocol (Becton Dickinson). The cells that were Annexin V:FITC positive and PI negative were identified as early apoptotic, and Annexin V:FITC and PI positive as late apoptotic or necrotic.

[6] = tested on: IL-6 level, SW480 cells; assay: IL-6 level ELISA, SW480; settings: SW480, 72 h; for IL-6 Concentration: compound at IC50 concentration, ELISA; for reduction (inhibition) of IL-6 level: IC50 concentration, vs control
Experimental: (§3) Because of the low secretion of IL-6 by leukemic cells compared to solid tumors, and in addition to the lack of IL-6 receptors in K-562 cells, studies of the effect of derivatives 1–3, 8, and 9 on the inhibition of IL-6 release were carried out on primary and secondary solid tumor cells (SW480, SW620, and PC3). A remarkable inhibition of the IL-6 level was denoted for both colon cancer cell lines. Compound 2, identified as the strongest inhibitor, reduced the interleukin level by 54% (in SW480 cells) and 63% (SW620 cells). A significant effect was also observed in these cells for its structural isomer 3 (39% and 23% of inhibition, respectively). Additionally, compound 3 considerably affected the IL-6 level produced by PC3 cells, and reduced it by 33%. Similarly, the treatment with derivative 1 was effective for both colon cancer cells. In its presence, IL-6 release decreased by 28–36%, as compared to controls. For monosubstituted derivatives 8 and 9, the observed IL-6-reducing influence was weaker. They both inhibited IL-6 secretion in SW480 and SW620 cell lines by 25–32%. In contrast to compound 9, thiourea 8 additionally diminished the cytokine level in PC3 cells by 26%.
(§4) The IL-6 concentration in all studied cancer cells and normal HaCaT cell lines was measured by an ELISA kit (Diaclon SAS Besancon CEDEX, Besançon, France). […] IL-6 in cell culture supernatant was measured using the enzyme-linked immunosorbent assay in accordance with the manufacturer’s protocol.

[7] = tested on: IL-6 level, SW620 cells; assay: IL-6 level ELISA, SW620; settings: SW620, 72 h; for IL-6 Concentration: compound at IC50 concentration, ELISA; for reduction (inhibition) of IL-6 level: IC50 concentration, vs control
Experimental: as §3, §4

Row | IC50 ([1]; 72 h) | IC50 ([1]; Homo sapiens, SW480, 72 h) | Structure (SMILES) | Cell Number × 10^5 [2] | Viability (%) [2] | viability at 72 h [3] | Cell Number × 10^5 [4] | cells in late apoptosis [5] | IL-6 Concentration [6] | IL-6 Concentration [7] | reduction in live cell number [2] | reduction (inhibition) of IL-6 level [6] | reduction (inhibition) of IL-6 level [7]
1 | 12.7 ± 1.53 µM | 12.7 to 15.6 µM | Fc1ccc(NC(=S)Nc2cccc(C(F)(F)F)c2)cc1Cl [Compound 1, 1-(3-chloro-4-fluorophenyl)-3-[3-(trifluoromethyl)phenyl]thiourea] | 1.8 ± 0.24 × 10^5 | 93 ± 2.05% | 97 ± 1.33% | 6.5 ± 0.15 × 10^5 | 60% ± 1.8% | 5.7 ± 0.01 pg/mL | 4.9 ± 0.01 pg/mL | – | – | –
2 | – | 38.1 ± 4.38 µM | FC(F)(F)c1cccc(NC(=S)Nc2ccc(Cl)cc2)c1 [Compound 9, 1-(4-chlorophenyl)-3-[3-(trifluoromethyl)phenyl]thiourea] | 3.5 ± 0.22 × 10^5 | 90 ± 2.40% | 98 ± 1.5% | 8.6 ± 0.12 × 10^5 | 24% ± 0.4% | 5.5 ± 0.02 pg/mL | 5.2 ± 0.03 pg/mL | – | – | –
3 | – | 8.9 ± 1.14 µM | FC(F)(F)c1ccc(NC(=S)Nc2cccc(C(F)(F)F)c2)cc1 [Compound 8, 1-[3-(trifluoromethyl)phenyl]-3-[4-(trifluoromethyl)phenyl]thiourea] | 3.2 ± 0.14 × 10^5 | 88 ± 1.10% | 98 ± 1.02% | 4.9 ± 0.28 × 10^5 | 97% ± 1.2% | 5.3 ± 0.01 pg/mL | 5.8 ± 0.06 pg/mL | 27% | – | –
4 | – | 30.1 ± 3.11 µM | FC(F)(F)c1cccc(NC(S)=Nc2ccc(Cl)cc2Cl)c1 [Compound 3, 1-(2,4-dichlorophenyl)-3-[3-(trifluoromethyl)phenyl]thiourea] | 3.0 ± 0.27 × 10^5 | 85 ± 1.20% | 96 ± 3.01% | 7.8 ± 0.14 × 10^5 | – | 4.8 ± 0.04 pg/mL | 5.9 ± 0.03 pg/mL | – | 39% | 23%
5 | – | 9 ± 1.42 µM | FC(F)(F)c1cccc(NC(=S)Nc2ccc(Cl)c(Cl)c2)c1 [Compound 2, 1-(3,4-dichlorophenyl)-3-[3-(trifluoromethyl)phenyl]thiourea] | 1.0 ± 0.21 × 10^5 | 55 ± 1.03% | 84 ± 1.03% | 1.6 ± 0.31 × 10^5 | 95% ± 1.5% | 3.6 ± 0.02 pg/mL | 2.8 ± 0.03 pg/mL | 66% | 54% | 63%
